This note sets out measurements from patent US9834566B2, “Pyrazolopyrimidine macrocycles as inhibitors of human immunodeficiency virus replication” (priority 2014, dated 2017).

One data set relates to recombinant NL-RLuc virus (NL4-3 with Renilla Luciferase gene). Put plainly: Inhibition of HIV replication (NL-RLuc luciferase reporter virus in MT-2 cells). It is filed as cell-based. The note with it: NL43, 120 h. The source says:
Inhibition of HIV Replication:
A recombinant NL-RLuc proviral clone was constructed in which a section of the nef gene from NL4-3 was replaced with the Renilla Luciferase gene. This virus is fully infectious and can undergo multiple cycles of replication in cell culture. In addition, the luciferous reporter provides a simple and easy method for quantitating the extent of virus growth and consequently, the antiviral activity of test compounds. The plasmid pNLRLuc contains the proviral NL-Rluc DNA cloned into pUC18 at the PvuII site. The NL-RLuc virus was prepared by transfection of 293T cells with the plasmid pNLRLuc. Transfections were performed using the LipofectAMINE PLUS kit from Invitrogen (Carlsbad, Calif.) according to the manufacturer and the virus generated was titered in MT-2 cells. For susceptibility analyses, the titrated virus was used to infect MT-2 cells in the presence of compound, and after 5 days of incubation, cells were processed and quantitated for virus growth by the amount of expressed luciferase. Assay media was RPMI 1640 supplemented with 10% heat inactivated fetal bovine serum (FBS), 100 units/ml penicillin G/100 units/ml streptomycin, 10 mM HEPES buffer pH 7.55 and 2 mM L-glutamine. The results from at least 2 experiments were used to calculate the EC50 values. Luciferase was quantitated using the Dual Luciferase kit from Promega (Madison, Wis.). Susceptibility of viruses to compounds was determined by incubation in the presence of serial dilutions of the compound. The 50% effective concentration (EC50) was calculated by using the exponential form of the median effect equation where (Fa)=1/[1+(ED50/drug conc.)^m] (Johnson V A, Byington R T. Infectivity Assay. In Techniques in HIV Research. ed. Aldovini A, Walker B D. 71-76. New York: Stockton Press. 1990).
(In general: A reporter such as luciferase makes a cellular process visible.)
What is called EC50 is the concentration at which the effect is half-maximal. As for `Cc1nc2cc3nn2c(c1[C@H](OC(C)(C)C)C(=O)O)-c1ccc2c(c1)C(CCO2)OCc1cccc(c1)COc1cc(F)ccc1-c1cccc-3c1` (stereo partly drawn) [Example 23, (2S)-2-(tert-butoxy)-2-{18-fluoro-4-methyl-21, 29, 33-trioxa-5,7,8-triazaoctacyclo[28.6.2.1^6,9.1^10,14.1^23,27.0^2,7.0^15,20.0^34,38]hentetraconta-1(36),2,4,6(41),8,10(40),11,13,15(20),16,18, 23, 25, 27(39),34,37-hexadecaen-3-yl}acetic acid], the EC50 came out at 123 nM. On to `C=C1COc2cc(ccc2C)-c2c([C@H](OC(C)(C)C)C(=O)O)c(C)nc3cc(nn23)-c2cccc(c2)-c2ccc(F)cc2OC1` [Example 8, (2S)-2-(tert-Butoxy)-2-{22-fluoro-7,13-dimethyl-17-methylidene-15,19-dioxa-3,4,6-triazahexacyclo [24.3.1.1^2,^5.1^10,^14.0^4,^9.0^20,^25]dotriaconta-1(30),2,5(32),6,8,10,12,14(31), 20(25),21,23,26,28-tridecaen-8-yl}acetic acid], for which the concentration for a half-maximal effect (EC50) came to 784 nM.

In the case of `Cc1nc2cc3nn2c(c1[C@H](OC(C)(C)C)C(=O)O)N1CCC(C)(CC1)OCCOCCOc1cc(F)ccc1-c1cccc-3c1` [Example 24, (2S)-2-(tert-Butoxy)-2-{18-fluoro-4,28-dimethyl-21, 24, 27-trioxa-1,5,7,8-tetraazahexacyclo[26.2.2.1^6,9.1^10,14.0^2,7.0^15,20]tetratriaconta-2,4,6(34),8,10(33),11,13,15(20),16,18-decaen-3-yl}acetic acid], the EC50 was 6 nM. Same read-out and setting: the value for `Cc1ccc2cc1OCCCCCCOc1cc(F)ccc1-c1cccc(c1)-c1cc3nc(C)c([C@H](OC(C)(C)C)C(=O)O)c-2n3n1` [Example 16, (2S)-2-(tert-Butoxy)-2-{25-fluoro-7,13-dimethyl-15,22-dioxa-3,4,6-triazahexacyclo [27.3.1.1^2,^5.1^10,^14.0^4,^9.0^23,^28]pentatriaconta-1(33),2,5(35),6,8,10,12,14(34), 23(28),24,26,29,31-tridecaen-8-yl}acetic acid] was 780 nM; that for `Cc1ccc2cc1OCCN(Cc1ccccc1)CCOc1cc(F)ccc1-c1cccc(c1)-c1cc3nc(C)c([C@H](OC(C)(C)C)C(=O)O)c-2n3n1` [Example 18, (2S)-2-(tert-Butoxy)-2-{18-fluoro-4-methyl-21,29,33-trioxa-5,7,8-triazaoctacyclo [28.6.2.1^6,^9.1^10,^14.1^23,^27.0^2,^7.0^15,^20.0^34,^38]hentetraconta-1(36),2,4,6(41),8,10(40),11,13, 15(20),16,18,23,25,27(39),34,37-hexadecaen-3-yl}acetic acid] was 1140 nM; that for `Cc1nc2cc3nn2c(c1[C@H](OC(C)(C)C)C(=O)O)-c1ccc(cc1)OCCOCCOc1cc(F)ccc1-c1cccc-3c1` [Example 5, (2S)-2-(tert-butoxy)-2-{18-fluoro-4-methyl-21,24,27-trioxa-5,7,8-triazahexacyclo [26.2.2.1^6,^9.1^10,^14.0^2,^7.0^15,^20]tetratriaconta-1(30),2,4,6(34),8,10(33),11,13, 15(20),16,18,28,31-tridecaen-3-yl}acetic acid] was 309 nM. The same measure, in the same setting: the value for `Cc1nc2cc3nn2c(c1[C@H](OC(C)(C)C)C(=O)O)-c1ccc(cc1)OCc1cccc(c1)COc1cc(F)ccc1-c1cccc-3c1` [Example 3, (2S)-2-(tert-butoxy)-2-{18-fluoro-4-methyl-21,29-dioxa-5,7,8-triazaheptacyclo [28.2.2.1^6,^9.1^10,^14.1^23,^27.0^2,^7.0^15,^20]heptatriaconta-1(32),2,4,6(37),8,10(36),11,13, 15(20),16,18,23(35),24,26,30,33-hexadecaen-3-yl}acetic acid] was 55 nM; that for `Cc1ccc2cc1OCc1cccc(n1)COc1cc(F)ccc1-c1cccc(c1)-c1cc3nc(C)c([C@H](OC(C)(C)C)C(=O)O)c-2n3n1` [Example 10, (2S)-2-(tert-Butoxy)-2-{26-fluoro-7,13-dimethyl-15,23-dioxa-3,4,6,35-tetraazaheptacyclo [28.3.1.1^2,^5.1^10,^14.0^17,^21.0^4,^9.0^24,^29]heptatriaconta-1(34),2,5(37),6,8,10,12,14(36), 17(35),18,20,24(29),25,27,30,32-hexadecaen-8-yl}acetic acid] was 4200 nM. As to `Cc1ccc2cc1OCCC(F)(F)C(F)(F)CCOc1cc(F)ccc1-c1cccc(c1)-c1cc3nc(C)c([C@H](OC(C)(C)C)C(=O)O)c-2n3n1` [Example 12, (2S)-2-(tert-Butoxy)-2-{18,18,19,19,25-pentafluoro-7,13-dimethyl-15,22-dioxa-3,4,6-triazahexacyclo [27.3.1.1^2,^5.1^10,^14.0^4,^9.0^23,^28]pentatriaconta-1(33),2,5(35),6,8,10,12,14(34), 23(28),24,26,29,31-tridecaen-8-yl}acetic acid], the concentration giving a half-maximal response (EC50) came to 1670 nM.

System in the next data set: not given
Assay: not given
The note with it: from C=CCOC1(C)CCN(c2c([C@H](OC(C)(C)C)C(=O)OCC)c(C)nc3cc(-c4cccc(-c5cc(C(=O)OC)ccc5O[C@@H](C)CC=C)c4)nn23)CC1; rcm bond; Hoveyda-Grubbs II (with CuI); DCE; 1.52 mM; 80.0 °C; 3.0 h.
Compound `CCOC(=O)[C@@H](OC(C)(C)C)c1c(C)nc2cc3nn2c1N1CCC(C)(CC1)OCC=CC[C@H](C)Oc1ccc(C(=O)OC)cc1-c1cccc-3c1` came in with a ring closure, yield of all isomers of 83%.

The data set is the same for the next values; noted with them: from COC(=O)[C@@H](OC(C)(C)C)c1c(C)nc2cc(-c3cccc(-c4ccc(F)cc4OCc4cccc(CBr)c4)c3)nn2c1-c1ccc2c(c1)C(O)CCO2; ether bond; NaH; THF; 2.77 mM; 25.0 °C; 5.0 h; 2 steps.
Take `Cc1nc2cc3nn2c(c1[C@H](OC(C)(C)C)C(=O)O)-c1ccc2c(c1)C(CCO2)OCc1cccc(c1)COc1cc(F)ccc1-c1cccc-3c1` (stereo partly drawn) [Example 23, (2S)-2-(tert-butoxy)-2-{18-fluoro-4-methyl-21, 29, 33-trioxa-5,7,8-triazaoctacyclo[28.6.2.1^6,9.1^10,14.1^23,27.0^2,7.0^15,20.0^34,38]hentetraconta-1(36),2,4,6(41),8,10(40),11,13,15(20),16,18, 23, 25, 27(39),34,37-hexadecaen-3-yl}acetic acid]: the ring closure, yield of all isomers is 7.2%.
